Columns and labels:
rM4 = molecular target: T1, rM4 (Rattus norvegicus, UniProt P08485); assay: Calcium mobilization assay with rM4/Gqi5-CHO cells, EC20 acetylcholine; format: cell-based; details: 9a vs 6
T1 sequence (P08485 1-478): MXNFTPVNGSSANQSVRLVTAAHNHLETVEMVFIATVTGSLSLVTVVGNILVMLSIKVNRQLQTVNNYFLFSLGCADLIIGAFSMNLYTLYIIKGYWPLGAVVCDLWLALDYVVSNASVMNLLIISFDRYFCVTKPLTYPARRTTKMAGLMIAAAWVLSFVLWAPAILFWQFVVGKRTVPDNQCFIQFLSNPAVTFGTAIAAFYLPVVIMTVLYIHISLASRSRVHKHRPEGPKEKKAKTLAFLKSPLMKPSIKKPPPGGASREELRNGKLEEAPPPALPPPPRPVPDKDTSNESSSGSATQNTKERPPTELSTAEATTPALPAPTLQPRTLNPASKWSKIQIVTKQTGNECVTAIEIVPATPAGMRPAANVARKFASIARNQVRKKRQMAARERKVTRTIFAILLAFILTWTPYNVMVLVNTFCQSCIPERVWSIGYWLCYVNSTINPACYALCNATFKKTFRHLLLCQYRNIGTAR

[1] = Rat brain:plasma partition coefficients; format: in vivo; details: 0.25 hr after IV cassette dose (0.20-0.25 mg/kg), male SD rat, n=1
Cytochrome P450 2D6 = Cytochrome P450 2D6 (Homo sapiens, UniProt P10635); assay: Cytochrome P450 inhibition, 2D6; format: in vitro ADME
rat M1-3,5 = assay: Muscarinic subtype selectivity, rat M1-3,5; format: cell-based; details: read-out: EC50 at rat M1-3,5; no activity
human M1-3,5 = assay: Muscarinic subtype selectivity, human M1-3,5; format: cell-based; details: read-out: EC50 at human M1-3,5; no activity
[2] = system: 68 GPCRs, ion channels and transporter; assay: Eurofin Lead Profiling radioligand binding panel; details: 10 μM
hCav1 2 = hCav1 2 (Homo sapiens, UniProt Q13936); assay: Off-target full CRC, hCav1 2; format: binding
DAT = DAT (Homo sapiens, UniProt Q01959); assay: Off-target full CRC, DAT; format: binding
SERT = SERT (Homo sapiens, UniProt P31645); assay: Off-target full CRC, SERT; format: binding
5-HT3 = molecular target: T2, 5-HT3 (Homo sapiens, UniProt P46098); assay: Off-target full CRC, 5-HT3; format: binding
T2 sequence (P46098 24-478): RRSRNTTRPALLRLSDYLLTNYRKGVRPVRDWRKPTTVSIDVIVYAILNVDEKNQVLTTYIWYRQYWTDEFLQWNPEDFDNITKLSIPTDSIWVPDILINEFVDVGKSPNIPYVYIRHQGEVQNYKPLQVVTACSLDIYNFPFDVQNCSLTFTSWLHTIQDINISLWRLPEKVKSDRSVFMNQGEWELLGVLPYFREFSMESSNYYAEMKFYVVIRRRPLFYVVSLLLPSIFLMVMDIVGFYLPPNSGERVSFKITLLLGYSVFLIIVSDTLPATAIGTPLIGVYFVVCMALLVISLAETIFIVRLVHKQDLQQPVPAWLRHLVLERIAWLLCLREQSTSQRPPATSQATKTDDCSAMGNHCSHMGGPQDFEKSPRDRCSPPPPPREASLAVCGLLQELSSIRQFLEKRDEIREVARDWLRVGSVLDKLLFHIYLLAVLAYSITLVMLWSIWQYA

[3] = system: amphetamine-induced hyperlocomotion; details: rat, 0.75 mg/kg amphetamine s.c., n = 7-8 per dose group
In vitro clearance, rat = details: predicted
[4] = In vitro clearance, human; details: predicted
Ghrelin receptor = Ghrelin receptor (Homo sapiens, UniProt Q92847); assay: Off-target full CRC, Ghrelin receptor; format: binding
BDZ = assay: Off-target full CRC, BDZ; format: binding
GABA = assay: Off-target full CRC, GABA; format: binding
[5] = system: amphetamine-induced hyperlocomotion; details: cited from earlier work
M4 = M4 PAM potency, 6 compared with 2; format: cell-based; details: 6 vs 2
[6] = Free fraction, 6 compared with 2; format: in vitro ADME; details: 6 vs 2

Chain of SERT (P31645 whole entry, species assumed): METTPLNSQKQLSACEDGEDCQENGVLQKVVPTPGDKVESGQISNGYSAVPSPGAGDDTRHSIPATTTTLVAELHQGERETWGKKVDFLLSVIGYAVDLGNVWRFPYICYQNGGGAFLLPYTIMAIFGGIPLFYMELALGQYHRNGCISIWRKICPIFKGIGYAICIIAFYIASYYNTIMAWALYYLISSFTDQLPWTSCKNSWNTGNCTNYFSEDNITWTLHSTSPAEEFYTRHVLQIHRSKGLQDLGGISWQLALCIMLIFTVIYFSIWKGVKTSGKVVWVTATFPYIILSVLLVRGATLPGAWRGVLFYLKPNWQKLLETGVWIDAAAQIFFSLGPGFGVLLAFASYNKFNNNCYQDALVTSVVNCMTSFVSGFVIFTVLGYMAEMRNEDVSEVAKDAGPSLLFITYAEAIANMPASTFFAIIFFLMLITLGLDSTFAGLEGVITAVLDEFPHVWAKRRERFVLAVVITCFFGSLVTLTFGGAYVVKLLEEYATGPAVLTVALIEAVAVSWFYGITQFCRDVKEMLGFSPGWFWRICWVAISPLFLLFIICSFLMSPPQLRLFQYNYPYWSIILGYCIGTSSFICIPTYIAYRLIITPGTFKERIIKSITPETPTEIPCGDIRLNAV
Chain of DAT (Q01959 whole entry, species assumed): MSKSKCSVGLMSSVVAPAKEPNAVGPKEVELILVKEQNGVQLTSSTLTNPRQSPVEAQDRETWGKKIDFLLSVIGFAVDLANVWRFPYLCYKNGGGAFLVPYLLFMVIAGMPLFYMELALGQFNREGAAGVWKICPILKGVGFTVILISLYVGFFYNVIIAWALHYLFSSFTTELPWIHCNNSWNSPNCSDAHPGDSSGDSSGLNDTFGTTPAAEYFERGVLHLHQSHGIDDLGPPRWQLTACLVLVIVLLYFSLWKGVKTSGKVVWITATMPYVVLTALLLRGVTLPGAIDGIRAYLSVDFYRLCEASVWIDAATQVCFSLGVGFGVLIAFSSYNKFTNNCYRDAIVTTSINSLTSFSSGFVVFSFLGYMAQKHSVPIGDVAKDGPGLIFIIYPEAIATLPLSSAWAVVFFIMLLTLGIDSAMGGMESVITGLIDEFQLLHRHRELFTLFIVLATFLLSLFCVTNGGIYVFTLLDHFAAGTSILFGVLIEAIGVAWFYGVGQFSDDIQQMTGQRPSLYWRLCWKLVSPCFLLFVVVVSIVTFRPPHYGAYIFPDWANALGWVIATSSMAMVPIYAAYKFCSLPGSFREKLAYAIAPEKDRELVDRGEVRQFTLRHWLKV
Chain of Cytochrome P450 2D6 (P10635 whole entry): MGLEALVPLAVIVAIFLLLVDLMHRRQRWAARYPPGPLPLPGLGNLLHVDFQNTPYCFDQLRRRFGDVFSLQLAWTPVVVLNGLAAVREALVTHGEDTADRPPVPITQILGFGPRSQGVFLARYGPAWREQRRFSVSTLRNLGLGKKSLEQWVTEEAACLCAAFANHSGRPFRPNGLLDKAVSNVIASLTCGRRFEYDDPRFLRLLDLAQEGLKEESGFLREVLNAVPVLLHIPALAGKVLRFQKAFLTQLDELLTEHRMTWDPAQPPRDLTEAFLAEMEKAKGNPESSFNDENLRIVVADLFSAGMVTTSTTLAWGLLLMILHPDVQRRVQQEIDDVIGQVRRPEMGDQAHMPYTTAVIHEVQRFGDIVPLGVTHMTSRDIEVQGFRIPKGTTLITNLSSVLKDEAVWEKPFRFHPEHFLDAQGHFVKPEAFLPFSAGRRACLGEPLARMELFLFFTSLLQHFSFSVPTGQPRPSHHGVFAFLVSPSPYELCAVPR
Chain of Ghrelin receptor (Q92847 whole entry, species assumed): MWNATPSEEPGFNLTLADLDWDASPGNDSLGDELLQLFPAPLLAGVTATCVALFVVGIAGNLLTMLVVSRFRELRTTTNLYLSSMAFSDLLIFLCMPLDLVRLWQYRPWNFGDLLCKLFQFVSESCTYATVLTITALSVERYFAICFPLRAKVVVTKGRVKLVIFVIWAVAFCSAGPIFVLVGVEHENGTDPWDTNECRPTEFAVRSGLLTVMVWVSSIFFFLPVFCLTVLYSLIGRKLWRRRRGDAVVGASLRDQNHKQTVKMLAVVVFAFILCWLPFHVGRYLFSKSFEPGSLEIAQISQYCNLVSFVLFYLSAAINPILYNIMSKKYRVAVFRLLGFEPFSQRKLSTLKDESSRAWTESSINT

| SMILES | Inhibition of CYP 2D6 (in words) (Cytochrome P450 2D6) | EC50 (rat M1-3,5) | EC50 (human M1-3,5) | % inhibition at multiple off-targets in the Eurofin panel [2] | DAT ligand potency (full CRC) (DAT) | SERT ligand potency (full CRC) (SERT) | 5-HT3 ligand potency (full CRC) (5-HT3) | Full dose response AHL, result in words [3] | CLHEP, rat (In vitro clearance, rat) | CLHEP, human [4] | other results |
| --- | --- | --- | --- | --- | --- | --- | --- | --- | --- | --- | --- |
| CSc1ccc(CNC(=O)c2sc3nnc(C)c(C)c3c2N)cc1 [9a] | – | – | – | – | – | – | – | – | – | – | Fold increase in rat M4 PAM potency relative to 6 (rM4): ~10 fold |
| Cc1nnc2sc(C(=O)NCc3ccc(S(=O)(=O)CF)cc3)c(N)c2c1C [9i] | – | – | – | – | – | – | – | – | – | – | Rat Kp (total brain:plasma partition coefficient) [1]: not detected in the CNS |
| Cc1nnc2sc(C(=O)NCc3ccc(S(=O)(=O)C(F)F)cc3)c(N)c2c1C [9j] | weak inhibition | > 30 µM | > 30 µM | > 50% | 0.175 µM | 0.6 µM | 1.6 µM | efficacious in vivo | 28.1 mL/min/kg | 9.34 mL/min/kg | hCav1 2 ligand potency (full CRC) (hCav1 2): 5.7 µM |
| Cc1nnc2sc(C(=O)NCc3ccc(S(F)(F)(F)(F)F)cc3)c(N)c2c1C [9l] | weak inhibition | > 30 µM | > 30 µM | > 50% | 0.15 µM | 0.52 µM | 1.5 µM | efficacious in vivo | 40.5 mL/min/kg | 15.0 mL/min/kg | Ghrelin receptor ligand potency (full CRC) (Ghrelin receptor): 6.5 µM; BDZ ligand potency (full CRC) (BDZ): 1.5 µM; GABA ligand potency (full CRC) (GABA): 2.1 µM |
| Cc1nnc2sc(C(=O)NCc3ccc(S(=O)(=O)C(F)(F)F)cc3)c(N)c2c1C [compound 5] | – | > 30 µM | > 30 µM | – | – | – | – | – | 28.4 mL/min/kg | 10.2 mL/min/kg | % inhibition at any of the 68 targets in the Eurofin panel [2]: ≤ 50%; % reversal in AHL (previously reported) ([5]; 10 mg/kg p.o.): 46%; Minimum effective dose (MED) in AHL ([5]; p.o.): 3 mg/kg |
| COc1ccc(CNC(=O)c2sc3nnc(C)c(C)c3c2N)cc1 [compound 6] | – | – | – | – | – | – | – | – | – | – | Fold enhancement of M4 PAM potency relative to 2 (M4): 4 fold; Fold increase of free fraction relative to 2 [6]: up to 9 fold |

Source: PMC5340297 (Bioorganic & medicinal chemistry letters, 2016)
